For data set [1], the system named is L1210 Murine leukemia cells. As to the kind of experiment: In vitro growth inhibition of L1210 murine leukemia cells (Coulter Counter). It counts as cell-based. The note with it: Mus musculus, 72 hours of continuous exposure. As to the method:
The "in vitro" cytotoxic evaluation was also performed on L 1210 murine leukemia cells using the above mentioned cells maintained in suspension cultures (McCoy's 5A medium supplemented with 10% horse serum, glutamine, penicillin and streptomycin) grown in an humidified environment of 10% carbon dioxide and 90% air at 37°C. The compounds were dissolved in dimethylsulfoxide (DMSO) and added to the suspended cells in appropriate concentrations. After 72 hours of continuous exposure, the cell concentration was counted using a Coulter Counter and growth inhibition calculated using the formula: % growth inhibition = 1 - [cell number treated/cell number DMSO alone] x 100. [formula]
The IC50 was calculated from the growth inhibition data and they are reported in table VII in comparison to the prior art compound 5a (see table I for structure of 5a).
L1210 Murine leukemia cells were routinely maintained in suspension cultures in McCoy's 5A medium supplemented with 10% horse serum glutamine, penicillin and streptomycin and grown in a humidified environment of 10% carbon dioxide and 90% air at 37°C.
To assess the in vitro toxicity, each compound was dissolved in dimethylsulfoxide and added to 1 ml of L1210 cells (10^5 cells/tube) to attain final concentrations of 0.01, 0.1 and 1 µg of drug/ml of culture. After 72 hours of continues exposure to the drug, the cell concentration was determined with a Coulter Counter. Growth inhibition was calculated for each drug using the following formula: % growth inhibition = 1-[cell number treated/cell number DMSO alone] x 100. [formula]
The growth inhibition data was then used to calculate the IC50 value (the calculated drug concentration required to inhibit cell growth by 50% of control.

The subject of data set [2] is P388 Murine Leukemia. As to the kind of experiment: In vivo P388 murine leukemia (iv/iv, d 1, 4, 7). The note with it: for T/C% (range): median survival time; for TOX: toxic deaths/total number of mice; for LTS: tumor free at 60 days. Here is the method:
P388 Murine Leukemia cells were maintained in vivo by serial intraperitoneal (i.p.) injections of 10^6 cells in DBA2 mice. For test purposes, CDF1 mice were inoculated intravenously (i.v.) with 10^6 P388 cells and treatment was initiated 24 hr later. The i.v. dose of drug was administered on days 1, 4 and 7. Mice were observed daily for signs of toxicity and survival. The date of death was recorded for each animal that died or was sacrificed during the 60 day study. The median survival time (MST) for each treatment group was calculated and the % T/C was determined using the following formula: % T/C = [(MST treated)/(MST control)] x 100 [formula]

The test system of data set [3] is human colon adenocarcinoma cell line (Lovo). As to the kind of experiment: MTT cytotoxicity assay on human colon adenocarcinoma Lovo cells. The class given is cell-based. The note with it: 144 h, read-out: IC50 µg/ml±S.D. LoVo. As to the method:
(§1) The evaluation of the "in vitro" cytotoxic activity of the compounds of the invention was performed using a human colon adenocarcinoma cell line (Lovo) isolated from a metastatic nodule and a subline with aquired resistance to a number of antitumor agents, among which doxorubicin, VP-16 and vincristine. […] The compounds were tested according to the MTT assay (Mosman, T., "Rapid Colorimetric assay for cellular growth and survival: application to proliferation and cytotoxicity assay", J. Immunol. Methods, (1983), 65, 55-63; Green, L.M., "Rapid colorimetric assay for cell viability; application to the quantitation of cytotoxic and growth inhibitory lymphokines", J. Immunol. Methods, (1984), 70, 257-268) in comparison with mitoxantrone, ametantrone and doxorubicin.
(§2) In vitro biological evaluation: MTT assay on human colon adenocarcinoma Lovo cells.
(§3) The MTT assay was performed according to Mosmann, T., J. Immunol. Methods, (1983), 65, 55-63 and Green, L. M., J. Immunol. Methods, (1984), 70, 257-268.
(§4) Immediately before use, compounds and reference standards are dissolved in proper solvent and subsequently further diluted in complete culture medium. Human colon adenocarcinoma cells Lovo and the subline resistant to doxorubicin (Lovo/DX) (2.5. 10^4 cells/ml) are plated in 96-well plates and preincubated for 24 hours in culture medium. After this time, the cells are exposed to drugs for 144 hours, then the thiazolyl blue tetrazolium bromide solution (MTT solution) is added and the cells are reincubated for 4 hours. The supernatant is removed and 150 µl of dimethylsulfoxide are added to solubilize formazan crystals. The plate is read at 570 nm with microplate reader and the inhibiting concentration of 50% cellular growth (IC50; µg/ml) is calculated.

Data set [4] deals with human MX-1 mammary carcinoma. Kind of data set: In vivo human MX-1 mammary carcinoma xenograft (sc/iv). The note with it: MX-1 sc/iv q 7d x 3; for TWI %: CD1 nu/nu female mice; for TOX: toxic deaths/total number of mice. The text has this: (§5) These tumor models are enclosed in the panel of eight transplanted tumors used by the U.S.-NCl as screen panel for selection of clinically useful antitumor agents (R.K.Y. Zee Cheng and C.C. Cheng, "Screening and evaluation of anticancer agents", Meth. and Find. Expl. Clin. Pharmacol., (1988), 10(2), 67-101).
CD1 nu/nu female mice were transplantated sc (subcutaneously) with tumor fragments (about 1 mm x 1 mm x 1 mm). Treatment was given iv once a week for three weeks, when tumor weight reached an average of 150 mg. For all individual tumors the weight change (relative tumor weight) for the start of treatment (Vo) was expressed as Vt/Vo at each day of measurement (Vt). TWI% was calculated 7 days after the last drug treatment using the formula: TWI% = 100-[(mean relative tumor weight of treated mice)/(mean relative tumor weight of controls)] x 100. [formula]

The subject of data set [5] is Lovo/DX. Kind of data set: MTT cytotoxicity assay on doxorubicin-resistant subline Lovo/DX. The class given is cell-based, human. As to the method:
as §1, §2, §3, §4

In data set [6] the test system is P388 Murine Leukemia. As to the kind of experiment: In vivo ascitic P388 murine leukemia (ip/ip, d 1, 5, 9). On the set-up: species or system CDF1 mice. The note with it: for % T/C (range): median survival time; for TOX: toxic deaths/total No. of mice. As to the method: Treatment was initiated approximately 24 hours after tumor transplantation and dosages of the drug were administered ip (P388 ip/ip) or iv (P388 iv/iv) according to preestablished protocols, usually at 3-day (P388 iv/iv) or 4-day (P388 ip/ip) intervals. The studies were done over a 60-day period and the date of death for each animal was recorded. The % T/C was determined using the mean survival time (MST) for each group according to the formula % T/C = [(MST treated)/(MST control)] x 100 [formula]
P388 Murine Leukemia cells were maintained in vivo by serial intraperitoneal (ip) injections of 10^6 cells in DBA2 mice. For test purposes, CDF1 mice were inoculated i.p. with 10^6 P388 cells and treatment was initiated 24 hours later. The i.p dose of drug was administered on days 1, 5 and 9. Mice were observed daily for signs of toxicity and survival. The date of death was recorded for each animal that died or was sacrificed during the 60-day study. The median survival time (MST) for each treatment group was calculated and the % T/C was determined using the following formula: % T/C = [(MST treated)/(MST control)] x 100 [formula]

Data set [7] concerns murine Lewis Lung carcinoma. As to the kind of experiment: In vivo murine Lewis Lung carcinoma (im/iv). On the set-up: species or system C57b1/6 female mice. The note with it: LEWIS LUNG im/iv 1,8,15; for T/C %: median survival time; for TOX: toxic deaths/total number of mice; for TWI %: tumor Weight Inhibition 7 days after last treatment. As to the method:
as §5
C57b1/6 female mice were trasplantated im (intralimbs) with 10^5 cells. […] The mean tumor weight for each treatment group was calculated according to Geran, R.I. et al., Cancer Chemother. Rep., (1972), 3, 51-61 and the TWI% was calculated 7 days after the last drug treatment using the formula: TWI% = 100-[(Mean tumor weight of treated mice)/(mean tumor weight of controls)] x 100. [formula]

The test system of data set [8] is L1210 murine leukemia. Kind of data set: In vivo L1210 murine leukemia (ip/ip, d 1, 5, 9), protocol a, 10^6 cells. Further details: species or system BDF1 mice. The note with it: days 1, 5 and 9, ip; for %T/C: mean survival time; for LTS: tumor-free at 60 days. As to the method:
L 1210 leukemia cells were intraperitoneally (ip) injected in CDFl mice and treatment was initiated approximately 24 hours after tumor transplantation. Dosages of the drugs were administered ip according to preestablished protocols, usually at 4-day intervals. The studies were done over a 60-day period and the date of death for each animal was recorded. The % T/C was determined using the mean survival time (MST) for each group according to the formula % T/C = [(MST treated)/(MST control)] x 100 [formula]
• a) L1210 murine leukemia cells were maintained in vivo by weekly intraperitoneal (ip) injections of 10^6 cells in BDF1 mice. For test purposes, mice were inoculated i.p. with 10^6 L1210 cells and treatment was initiated 24 hours later. The desired dose of drug was administered on days 1, 5 and 9. Mice were observed daily for signs of toxicity and survival. The date of death was recorded for each animal that died or was sacrificed during the 60-day study. The mean survival time (MST) for each treatment group was calculated and the % T/C was determined using the following formula: % T/C = [(MST treated)/(MST control)] x 100 [formula] The results are reported in table X • b) L1210 murine leukemia cells were maintained in vivo by weekly intraperitoneal (ip) injections of 10^5 cells in DBA2 mice. For test purposes, CDF1 mice were inoculated i.p. with 10^5 L1210 cells and treatment was initiated 24 hours later. The desired dose of drug was administered on days 1, 5 and 9. Mice were observed daily for signs of toxicity and survival. The date of death was recorded for each animal that died or was sacrificed during the 60-day study. The median survival time (MST) for each treatment group was calculated and the % T/C was determined using the following formula: % T/C = [(MST treated)/(MST control)] x 100 [formula]

In brackets after ≈: the same amount, converted by molar mass. Several values for one entry are separate records, joined by “and”; a condition that tells them apart may be missing. Equal entries are not always repeated.

As to `O=C1c2ccncc2C(=O)c2c(NCCN3CC3)ccc(NCCN3CC3)c21` [Compound 10f, 6,9-Bis{[2-(1'-aziridino)ethyl]amino}benzo[g]isoquinoline-5,10-dione], the IC50 in data set [1] was 0.002 mg/L (≈ 5.3 nM).

For `NCCNc1ccc(NCCN)c2c1C(=O)c1ccncc1C2=O.O=C(O)/C=C\C(=O)O.O=C(O)/C=C\C(=O)O` [Compound 10i.maleate, 6,9-bis{[2-(amino)ethyl]amino}benzo[g]isoquinoline-5,10-dione dimaleate], the “T/C% (range)” value in data set [2] (18 mg/kg/day iv days 1,4,7, dimaleate) is 200% and 188%; in data set [2] (27 mg/kg/day iv days 1,4,7), 203(181-227) %. For the same compound, the TOX is given as 0/16 in data set [2] (18 mg/kg/day iv days 1,4,7); 2/32 in data set [2] (27 mg/kg/day iv days 1,4,7); 0/7 in data set [4] (17 mg/Kg/day); 0/7 in data set [4] (26.6 mg/Kg/day); 1/5 in data set [4] (40 mg/Kg/day); 0/8 in data set [6] (25 mg/kg/day ip days 1,5,9). The values for the TOX in data set [6] (37.5 mg/kg/day ip days 1,5,9), in data set [7] (40 mg/Kg/day) and in data set [7] (60 mg/Kg/day) were 1/8, 0/10 and 1/10, respectively. Moreover, the figures for the LTS in data set [2] (18 mg/kg/day iv days 1,4,7) and in data set [2] (27 mg/kg/day iv days 1,4,7) were 0/16 and 0/32, respectively. Also, the IC50 in data set [3] was 0.21 ± 0.08 mg/L; in data set [5] (Homo sapiens, LoVo/DX, MTT assay, 144 hrs drug exposure, read-out: IC50 µg/ml±S.D. LoVo/Dx), 6.7 ± 1.8 mg/L. In addition, the TWI % in data set [4] (17 mg/Kg/day) amounted to 65%; in data set [4] (26.6 mg/Kg/day), 58%; in data set [4] (40 mg/Kg/day), 64%; in data set [7] (40 mg/Kg/day), 80%; in data set [7] (60 mg/Kg/day) it was 95%. For the same compound, the R.I. in data set [5] (R.I. = (IC50 LoVo/Dx)/(IC50 LoVo)) is 31.8. The “LTS (day 60)” value was 0/8 in data set [6] (25 mg/kg/day ip days 1,5,9) and 1/8 in data set [6] (37.5 mg/kg/day ip days 1,5,9). In addition, the “% T/C (range)” value in data set [6] (25 mg/kg/day ip days 1,5,9) was 185%; in data set [6] (37.5 mg/kg/day ip days 1,5,9) it was 260%. Moreover, the T/C % is given as 158% in data set [7] (40 mg/Kg/day) and 182% in data set [7] (60 mg/Kg/day).

For `O=C1c2ccncc2C(=O)c2c(NCCNCCO)ccc(NCCNCCO)c21` [Compound 10l.maleate, 6,9-bis{[2-(2-hydroxyethylamino)ethyl]amino}benzo[g]isoquinoline-5,10-dione], the IC50 in data set [1] was 0.06 mg/L. Also, in data set [8] (Dose 12.5 mg/kg), the “%T/C” value was found to be 313% and the LTS was 2/6. Further, in data set [8] (Dose 25 mg/kg), the “%T/C” value was determined as 415% and the LTS was 1/6.
